Source: PubChem BioAssay (NCI)
Values joined by “and” are separate entries in the source; they are usually repeats but may differ in a detail not shown here. Identical values can stand only once.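 Method: 48-hour compound exposure of cells in 96-well plates, five concentrations, linear interpolation of endpoints. GI50 = concentration required for 50% inhibition of growth. TGI: total growth inhibition.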

How the values were obtained:
Experiment in all cases: NCI anticancer screen, dose series, 48 h
OVCAR-8 ovarian = system: OVCAR-8 ovarian
A549 NSCLC = system: A549 NSCLC
ACHN renal = system: ACHN renal
UACC-62 melanoma = system: UACC-62 melanoma
RPMI-8226 leukemia = system: RPMI-8226 leukemia
SK-MEL-5 melanoma = system: SK-MEL-5 melanoma
HT29 colon = system: HT29 colon
LOX IMVI melanoma = system: LOX IMVI melanoma
MDA-MB-435 = system: MDA-MB-435
MCF7 breast = system: MCF7 breast

Compound	TGI (OVCAR-8 ovarian)	TGI (A549 NSCLC)	TGI (ACHN renal)	TGI (UACC-62 melanoma)	TGI (RPMI-8226 leukemia)	TGI (SK-MEL-5 melanoma)	TGI (HT29 colon)	TGI (LOX IMVI melanoma)	GI50 (MDA-MB-435)	TGI (MDA-MB-435)	GI50 (A549 NSCLC)	GI50 (ACHN renal)	GI50 (UACC-62 melanoma)	GI50 (RPMI-8226 leukemia)	GI50 (MCF7 breast)	TGI (MCF7 breast)	GI50 (SK-MEL-5 melanoma)	GI50 (HT29 colon)	GI50 (LOX IMVI melanoma)	GI50 (OVCAR-8 ovarian)
O=C(O)c1c(-c2cccc3ccccc23)sc(-c2cccc3ccccc23)c1C(=O)O	> 100 µM	> 100 µM	> 100 µM	> 100 µM	> 100 µM	> 100 µM	> 100 µM	> 100 µM	–	–	–	–	–	–	–	–	–	–	–	–
CN1CC[C@@H](c2c(O)cc(O)c3c(=O)cc(-c4ccccc4Cl)oc23)[C@@H](O)C1	–	33.8 µM	15.6 µM	0.133 µM and 0.182 µM and 0.102 µM	0.233 µM and 1.36 µM	0.265 µM and 0.182 µM	24.8 µM	> 100 µM	0.0886 µM and 0.0744 µM	0.261 µM and 0.22 µM and 0.342 µM	0.0793 µM and 0.161 µM	0.0346 µM	0.0571 µM and 0.0424 µM	0.0753 µM and 0.0274 µM	0.0629 µM and 0.046 µM	> 77.4 µM	0.0631 µM	0.178 µM	0.0289 µM	–
CC1OC(OCC2OC(Oc3c(-c4ccc(O)cc4)oc4cc(O)cc(O)c4c3=O)C(OC3OCC(O)(CO)C3O)C(O)C2O)C(O)C(O)C1O (stereo not drawn)	> 100 µM	> 100 µM	> 100 µM	> 100 µM	> 100 µM	> 100 µM	> 100 µM	> 100 µM	–	–	–	–	–	–	–	–	–	–	–	–
Cc1ccc(OCC(=O)N2N=C(c3ccccc3)CC2(O)c2ccccc2)cc1 (stereo not drawn)	> 100 µM	82.8 µM	> 100 µM	> 100 µM	> 100 µM	–	–	> 100 µM	–	–	–	–	–	–	–	–	–	–	–	–
COc1cc(CCc2ccc(OCCN(C)C)cc2)cc(OC)c1OC	> 100 µM	> 100 µM	> 100 µM	> 100 µM	> 100 µM	64.6 µM	> 100 µM	> 100 µM	–	–	–	–	–	–	–	–	–	–	–	–
COc1cc2c3c(n(C)c(=O)c2cc1OC)-c1cc2c(cc1/C3=C\CCCCCN)OCO2	3.33 µM	> 54.5 µM	9.28 µM	25.3 µM	1.38 µM	38.2 µM	> 100 µM	–	4.09 µM	> 90.6 µM	6.53 µM	0.289 µM	2.56 µM	0.1 µM	–	–	3.12 µM	1.17 µM	–	–
CC[C@H](C)N(CCN)C(=O)c1cc2ccccc2c(-c2ccccc2Cl)n1	27.6 µM	> 100 µM	28.1 µM	29.5 µM	32.4 µM	–	20.5 µM	27.7 µM	–	–	–	–	–	–	–	–	–	–	–	–
O=C(O)CSc1n[nH]c(-c2ccc(O)cc2)n1	> 100 µM	> 100 µM	> 100 µM	> 100 µM	> 100 µM	> 100 µM	> 100 µM	–	–	–	–	–	–	–	–	–	–	–	–	–
O=C(c1ccccc1)C(C(=O)c1ccccc1)C1(O)C(=O)c2ccccc2C1=O	> 100 µM	> 100 µM	> 100 µM	> 100 µM	> 100 µM	–	> 100 µM	> 100 µM	–	–	–	–	–	–	–	–	–	–	–	–
O=C(CNc1nncs1)NO	> 100 µM	> 100 µM	> 100 µM	> 100 µM	> 100 µM	–	> 100 µM	–	–	–	–	–	–	–	–	–	–	–	–	–
N#Cc1cn(C2OC(CO)C(O)C2O)c2ncnc(N)c12 (stereo not drawn)	0.889 µM and 0.178 µM	> 450 µM	0.02 µM	0.156 µM and 0.0603 µM and 0.115 µM	–	0.109 µM	–	–	–	–	< 0.01 µM	< 0.01 µM	< 0.0136 µM	0.0303 µM and 0.045 µM and < 0.01 µM	0.0251 µM and 0.045 µM and < 0.0169 µM	–	0.0416 µM	< 0.01 µM	< 0.01 µM	0.0469 µM and 0.045 µM
COc1ccc(-c2nc3sc(C)cn3c2/C=C/C(=O)c2cc(OC)c(OC)c(OC)c2)cc1	8.57 µM	> 100 µM	> 100 µM	> 100 µM	–	2.91 µM	> 100 µM	> 100 µM	2.61 µM	7.49 µM	3.37 µM	4.13 µM	2.82 µM	–	3.13 µM	> 100 µM	1.51 µM	3.95 µM	3.51 µM	3.23 µM
COc1cc(-c2nn(-c3ccc(NC(=O)c4ccc(Cl)c(Cl)c4)cc3)cc2-c2ccncc2)ccc1Cl	> 100 µM	> 100 µM	> 100 µM	> 100 µM	14.1 µM	–	> 100 µM	> 100 µM	7.14 µM	> 100 µM	> 100 µM	8.06 µM	6.34 µM	3.03 µM	5.53 µM	> 100 µM	–	2.9 µM	2.76 µM	5.28 µM
CC1=C(C(=O)Nc2ccccc2C)C(c2ccccc2)C(C(=O)Nc2ccccc2C)=C(C)N1	> 100 µM	> 100 µM	> 100 µM	> 100 µM	–	90 µM	> 100 µM	42.6 µM	–	–	–	–	–	–	–	–	–	–	–	–
CCOc1ccccc1NC(=O)C(=O)CC(=O)c1c(C)n([O-])c2ccccc2[n+]1=O	> 100 µM	> 100 µM	> 100 µM	> 100 µM	> 100 µM	> 100 µM	> 100 µM	> 100 µM	–	–	–	–	–	–	–	–	–	–	–	–
CC1=C(C(=O)Nc2c(C)cccc2C)C(c2ccc3c(c2)OCO3)C(C(=O)Nc2c(C)cccc2C)=C(C)N1	44.2 µM	59 µM	35.2 µM	10.9 µM	–	–	30.2 µM	28.1 µM	–	–	–	–	–	–	–	–	–	–	–	–
O=C(Oc1ccc(Cl)cc1Cl)c1ccccc1Nc1ccnc(C(F)(F)F)c1	30.8 µM	33.1 µM	27 µM	7.06 µM	6.29 µM	10.5 µM	–	–	2.91 µM	8.1 µM	11.1 µM	13.2 µM	2.29 µM	2.39 µM	3.61 µM	17.2 µM	2.85 µM	–	–	4.79 µM
Cc1nc2c(nc1C)C(=O)c1cc(O)ccc1C2=O	> 100 µM	> 100 µM	> 100 µM	53.5 µM	> 79.7 µM	29.6 µM	> 87.2 µM	> 100 µM	–	–	–	–	–	–	–	–	–	–	–	–
CN(C)c1cccc2c(S(=O)(=O)N[C@H]3CC[C@H]4[C@@H]5CCc6cc(O)ccc6[C@H]5CC[C@]34C)cccc12	15.9 µM	10.7 µM	14.1 µM	3.46 µM	7.8 µM	2.9 µM	5.45 µM	–	1.15 µM	2.69 µM	2.51 µM	3.1 µM	1.55 µM	2.32 µM	2.59 µM	> 100 µM	1.53 µM	2.5 µM	–	3.3 µM
